{"source": "patent US20190231668A1", "about": "“SKIN WHITENING COMPOSITION CONTAINING MANNOSYLERYTHRITOL LIPID” (AMOREPACIFIC CORPORATION, priority 2016, published 2019)", "system": "B16F10 (melanoma cell) cell line", "assay": "Inhibitory effect on melanin production in α-MSH-stimulated melanin pigment producing cells", "type": "cell-based, mouse", "conditions": "medium with α-MSH (200 nM) and 100 ppm of substance, untreated medium = 100%, α-MSH alone about 270%", "method": "The inhibitory effect on melanin production in melanin pigment producing cells by the mannosylerythritol lipid (hereinafter referred to as MEL) was measured. As the cell line and serum, the mouse-derived B16F10 (melanoma cell) cell line purchased from ATCC and FBS (Cat No. 30-2020) were used. The DMEM (Cat No. 11995) required for cell culture and antibiotic-antifungal agent (Cat No. 15240-062) were purchased from Invitrogen company (GIBCO). The cell line was cultured under the conditions of 37° C., 10% CO2. […] Kojic acid was used as a positive control. After the fifth day, 1N NaOH was added and reacted at 60° C. for 2 hours to dissolve the melanin contained in the cells, and then measured the amount of melanin by measuring the absorbance at 405 nm. […] It was confirmed that the expression amount of melanin pigment by B16F10 cells in the medium supplemented with α-MSH and 100 ppm of kojic acid is about 110%, and thus the expression of melanin pigment was inhibited, and it was confirmed that the expression amount of melanin pigment in the medium supplemented with α-MSH and 1 ppm of MEL was about 180%, and the expression amount of melanin pigment in the medium supplemented with α-MSH and 5 ppm of MEL was about 90% and thus the expression of melanin pigment was inhibited.", "data": [{"compound": "O=c1cc(CO)occ1O", "note": "[kojic acid]", "values": [{"measurement": "expression amount of melanin pigment", "result": "about 110%"}]}]}
